Test results taken from patent US20210024542A1 (Torcept Therapeutics, Inc., priority 2018, published 2021).
Read-outs that look alike come from different tables or passages of the source.

Columns and labels:
[1] = tested on: OVCAR3; test: OncoPanel cell proliferation assay, OVCAR3; details: for Relative cell count (%) Mean: OVCAR3
Procedure: (§6) Cells were seeded into 384-well plates and incubated in a humidified atmosphere of 5% CO2 at 37° C. Compounds were added the day following cell seeding. At the same time, a time zero untreated cell plate was generated. After a 3-day incubation period, cells were fixed and stained to allow fluorescence imaging of nuclei. Compounds (1 mM stock solutions) were serially diluted in half-log steps from the highest test concentration (1 micromol), and assayed over 10 concentrations with a maximum assay concentration of 0.1% DMSO. Automated fluorescence microscopy was carried out using a Molecular Devices ImageXpress Micro XL high-content imager, and images were collected with a 4× objective. 16-bit TIFF images were acquired and analyzed with MetaXpress 5.1.0.41 software.
(§7) GI50 is the concentration needed to reduce the observed growth by half (midway between the curve maximum and the time zero value). […] In rare instances, values <0 or >10 may be observed. […] Curve-fitting, calculations, and report generation was performed using a custom data reduction engine and MathIQ based software (AIM).

[2] = tested on: NCI-H510A; test: OncoPanel cell proliferation assay, NCI-H510A; assay type: cell-based, human
Procedure: (§1) Cells were grown in RPMI 1640, 10% FBS, 2 mM L-alanyl-L-glutamine, 1 mM Na pyruvate, or a special medium. Cells were seeded into 384-well plates and incubated in a humidified atmosphere of 5% CO2 at 37° C. Compounds were added the day following cell seeding. At the same time, a time zero untreated cell plate was generated. After a 3-day incubation period, cells were fixed and stained to allow fluorescence imaging of nuclei. Compounds (1 mM stock solutions) were serially diluted in half-log steps from the highest test concentration ([…]), and assayed over 10 concentrations with a maximum assay concentration of 0.1% DMSO. Automated fluorescence microscopy was carried out using a Molecular Devices ImageXpress Micro XL high-content imager, and images were collected with a 4× objective. 16-bit TIFF images were acquired and analyzed with MetaXpress 5.1.0.41 software.
(§2) Cell proliferation was measured by the fluorescence intensity of an incorporated nuclear dye. The output is referred to as the relative cell count, where the measured nuclear intensity is transformed to percent of control (POC) using the following formula: […]
(§3) Cellular response parameters were calculated using nonlinear regression to a sigmoidal single-site dose response model:
(§4) Where y is a response measured at concentration x, A and B are the lower and upper limits of the response, C is the concentration at the response midpoint (EC50), and D is the Hill Slope (Ref. 1).
(§5) EC50 is the test compound concentration at the curve inflection point or half the effective response (parameter C of the fitted curve solution). GI50 is the concentration needed to reduce the observed growth by half (midway between the curve maximum and the time zero value). “Cell Count Activity Area” is an estimate of the integrated area above the curve (Barretina, et al. The Cancer Cell Line Encyclopedia enables predictive modelling of anticancer drug sensitivity. Nature 483: 603-607). […] In rare instances, values <0 or >10 may be observed. […] Curve-fitting, calculations, and report generation was performed using a custom data reduction engine and MathIQ based software (AIM).

[3] = tested on: PC-3; test: OncoPanel cell proliferation assay, PC-3; details: for Relative cell count (%) Mean: PC-3
Procedure: as §6, §7

[4] = tested on: SK-UT-1; test: OncoPanel cell proliferation assay, SK-UT-1; details: for Relative cell count (%) Mean: SK-UT-1
Procedure: as §6, §7

[5] = tested on: CEM-C1; test: OncoPanel cell proliferation assay, CEM-C1; assay type: cell-based, human; details: for Relative cell count (%) Mean: CEM-C1
Procedure: as §1, §2, §3, §4, §5

[6] = tested on: AGS; test: OncoPanel cell proliferation assay, AGS; assay type: cell-based, human
Procedure: as §1, §2, §3, §4, §5

[7] = Homo sapiens, 72 h, 3-day incubation, read-out: Cell Count EC50
[8] = Homo sapiens, 72 h, 3-day incubation, read-out: Cell Count GI50
[9] = Homo sapiens, 72 h, 3-day incubation, read-out: Cell Count IC50

CO[C@H]1C[C@@H]2CC[C@@H](C)[C@@](O)(O2)C(=O)C(=O)N2CCCC[C@H]2C(=O)O[C@H]([C@H](C)C[C@@H]2C[C@@H]3C[C@H]2C[C@H]3O)CC(=O)[C@H](C)/C=C(\C)[C@@H](O)[C@@H](OC)C(=O)[C@H](C)C[C@H](C)/C=C/C=C/C=C/1C [Formula I, 37R-hydroxynorbornylrapamycin]
EC50 ([1]; Homo sapiens): 650 nM
EC50 ([1]; Homo sapiens, OVCAR-3, 72 h, read-out: Cell Count EC50): 646 nM
GI50 ([1]; Homo sapiens, OVCAR-3, 72 h, read-out: Cell Count GI50): 65.8 nM
IC50 ([1]; Homo sapiens, OVCAR-3, 72 h, read-out: Cell Count IC50): > 1000 nM
Cell Count Activity Area ([1]; OVCAR3, scale 0-10): 2.43
Relative cell count (%) Mean ([1]; 1.00E+00 microM): 61.8%
Relative cell count (%) Mean ([1]; 1.00E−01 microM): 72.8%
Relative cell count (%) Mean ([1]; 1.00E−02 microM): 85.0%
Relative cell count (%) Mean ([1]; 1.00E−03 microM): 90.2%
Relative cell count (%) Mean ([1]; 1.01E−04 microM): 93.3%
Relative cell count (%) Mean ([1]; 3.16E−01 microM): 61.7%
Relative cell count (%) Mean ([1]; 3.17E−02 microM): 79.9%
Relative cell count (%) Mean ([1]; 3.17E−03 microM): 85.2%
Relative cell count (%) Mean ([1]; 3.18E−04 microM): 89.7%
Relative cell count (%) Mean ([1]; 3.18E−05 microM): 106.9%
Relative cell count (%) Mean ([2]; 1.00E+00 microM): 66.2%
Relative cell count (%) Mean ([2]; 1.00E−01 microM): 62.8%
Relative cell count (%) Mean ([2]; 1.00E−02 microM): 69.5%
Relative cell count (%) Mean ([2]; 1.00E−03 microM): 68.9%
Relative cell count (%) Mean ([2]; 1.01E−04 microM): 77.7%
Relative cell count (%) Mean ([2]; 3.16E−01 microM): 66.3%
Relative cell count (%) Mean ([2]; 3.17E−02 microM): 64.7%
Relative cell count (%) Mean ([2]; 3.17E−03 microM): 72.2%
Relative cell count (%) Mean ([2]; 3.18E−04 microM): 70.5%
Relative cell count (%) Mean ([2]; 3.18E−05 microM): 75.7%
EC50 [2, 7]: 0.00399 nM
GI50 [2, 8]: 0.83 nM
IC50 [2, 9]: > 1000 nM
EC50 ([2]; Homo sapiens, Table 4 summary, Small cell lung cancer, read-out: EC50): 0.004 nM
Cell Count Activity Area ([2]; scale 0-10): 3.05
EC50 ([3]; Homo sapiens, PC-3, 72 h, read-out: Cell Count EC50): 0.346 nM
GI50 ([3]; Homo sapiens, PC-3, 72 h, read-out: Cell Count GI50): 1.89 nM
IC50 ([3]; Homo sapiens, PC-3, 72 h, read-out: Cell Count IC50): 9.55 nM
Cell Count Activity Area ([3]; PC-3, scale 0-10): 3.97
Relative cell count (%) Mean ([3]; 1.00E+00 microM): 42.2%
Relative cell count (%) Mean ([3]; 1.00E−01 microM): 47.9%
Relative cell count (%) Mean ([3]; 1.00E−02 microM): 53.6%
Relative cell count (%) Mean ([3]; 1.00E−03 microM): 59.2%
Relative cell count (%) Mean ([3]; 1.01E−04 microM): 87.3%
Relative cell count (%) Mean ([3]; 3.16E−01 microM): 43.8%
Relative cell count (%) Mean ([3]; 3.17E−02 microM): 47.1%
Relative cell count (%) Mean ([3]; 3.17E−03 microM): 59.0%
Relative cell count (%) Mean ([3]; 3.18E−04 microM): 69.1%
Relative cell count (%) Mean ([3]; 3.18E−05 microM): 93.7%
EC50 ([4]; Homo sapiens, SK-UT-1, 72 h, read-out: Cell Count EC50): 0.284 nM
GI50 ([4]; Homo sapiens, SK-UT-1, 72 h, read-out: Cell Count GI50): 2.01 nM
IC50 ([4]; Homo sapiens, SK-UT-1, 72 h, read-out: Cell Count IC50): 11.7 nM
Cell Count Activity Area ([4]; SK-UT-1, scale 0-10): 3.95
Relative cell count (%) Mean ([4]; 1.00E+00 microM): 50.0%
Relative cell count (%) Mean ([4]; 1.00E−01 microM): 57.6%
Relative cell count (%) Mean ([4]; 1.00E−02 microM): 52.2%
Relative cell count (%) Mean ([4]; 1.00E−03 microM): 72.8%
Relative cell count (%) Mean ([4]; 1.01E−04 microM): 94.8%
Relative cell count (%) Mean ([4]; 3.16E−01 microM): 48.7%
Relative cell count (%) Mean ([4]; 3.17E−02 microM): 53.1%
Relative cell count (%) Mean ([4]; 3.17E−03 microM): 57.1%
Relative cell count (%) Mean ([4]; 3.18E−04 microM): 72.6%
Relative cell count (%) Mean ([4]; 3.18E−05 microM): 98.4%
Cell Count Activity Area ([5]; CEM-C1, scale 0-10): 3.52
Relative cell count (%) Mean ([5]; 1.00E+00 microM): 47.1%
Relative cell count (%) Mean ([5]; 1.00E−01 microM): 53.2%
Relative cell count (%) Mean ([5]; 1.00E−02 microM): 58.4%
Relative cell count (%) Mean ([5]; 1.00E−03 microM): 68.7%
Relative cell count (%) Mean ([5]; 1.01E−04 microM): 90.0%
Relative cell count (%) Mean ([5]; 3.16E−01 microM): 48.9%
Relative cell count (%) Mean ([5]; 3.17E−02 microM): 53.1%
Relative cell count (%) Mean ([5]; 3.17E−03 microM): 62.4%
Relative cell count (%) Mean ([5]; 3.18E−04 microM): 72.7%
Relative cell count (%) Mean ([5]; 3.18E−05 microM): 94.0%
EC50 ([5]; Homo sapiens, 72 h, CEM-C1, 3-day incubation, read-out: Cell Count EC50): 0.5 nM
GI50 ([5]; Homo sapiens, 72 h, CEM-C1, 3-day incubation, read-out: Cell Count GI50): 10.2 nM
IC50 ([5]; Homo sapiens, 72 h, CEM-C1, 3-day incubation, read-out: Cell Count IC50): 391 nM
Relative cell count (%) Mean ([6]; 1.00E+00 microM): 32.3%
Relative cell count (%) Mean ([6]; 1.00E−01 microM): 39.3%
Relative cell count (%) Mean ([6]; 1.00E−02 microM): 39.1%
Relative cell count (%) Mean ([6]; 1.00E−03 microM): 39.8%
Relative cell count (%) Mean ([6]; 1.01E−04 microM): 58.2%
Relative cell count (%) Mean ([6]; 3.16E−01 microM): 38.3%
Relative cell count (%) Mean ([6]; 3.17E−02 microM): 34.7%
Relative cell count (%) Mean ([6]; 3.17E−03 microM): 40.1%
Relative cell count (%) Mean ([6]; 3.18E−04 microM): 45.6%
Relative cell count (%) Mean ([6]; 3.18E−05 microM): 82.7%
EC50 [6, 7]: 0.0635 nM
GI50 [6, 8]: 0.136 nM
IC50 [6, 9]: 0.186 nM
